“Also recorded” adds a separate entry of the source.
Test system: hippocampal slice cultures
Assay: Aβ oligomer-induced neuronal cell death by PI staining (PI uptake) in hippocampal slice cultures
Conditions: compound 1 μM, 1 h pretreatment, then Aβ oligomers 5 μM, 48 h; mouse hippocampal slices
Procedure: In this Example, we used a convenient assay for neuronal cell death, which was induced by incubation with Aβ oligomers in hippocampal slice cultures. The binding of propidium iodide (PI) with DNA of dead cells gives characteristic fluorescence that could be followed by fluorescence microscopy. Since PI is impermeable to live cell membranes, the observed fluorescence is indicative of the extent of dead cell populations.
1.0 mg of Δβ1-42 peptide was dissolved in 120 μL of hexafluoroisopropanol for 60 min at room temperature, and placed back on ice for 5-10 min. Hexafluoroisopropanol was evaporated overnight in the hood at room temperature. The sample was dissolved by 100% DMSO by adding 20 μL of fresh anhydrous DMSO (Sigma Hybri-Max) to 0.45 mg of the peptide, and diluted to 5 mM peptide stock into medium. Diluted peptide was incubated at 4° C. for 24 h, and then centrifuged at 14,000 g for 10 min in the cold. Before treating slice culture with Δβ oligomers, the oligomers were incubated at room temperature for 20 h.
Hippocampal slice cultures were prepared from 7-10 day-old mouse pups. Slices were cut at 400 μm on a Mcllwain tissue chopper, transferred to Millicell (Millipore Corp., Bedford, Mass.) membrane inserts (0.4 μm), and placed in 6-well culture plated. The upper surfaces of the slices were exposed to a humidified 37° C. atmosphere containing 5% CO2. Slice culture media consisted of basal Eagles medium with Earle's balanced salt solution, 20% heat-inactivated horse serum, enriched with glucose to a concentration of 5.6 mM. The medium was changed every other day. Slices were examined periodically for viability, and any dark or abnormal slices were discarded.
The effects of Δβ oligomers were tested in the slices which had been maintained for 15-20 days in vitro. All reagents were added to serum free medium (no horse serum). Δβ oligomers were added to cultures in serum free medium. Vehicles were treated the same way except with no peptide.
To analyze the degree of hippocampal neuronal cell death, hippocampal slices were stained by adding PI into slice culture medium at a concentration of 5 μg/mL. At indicated times after Δβ oligomers treatment, the degree of hippocampal neuronal death was evaluated by microscopic observation of PI uptake as described previously. […] The intensity of the fluorescence was quantitatively analyzed using Scion Image. The images were expressed as an arbitrary unit of PI uptake.
Mouse hippocampal slice cultures were treated with Aβ oligomers in the presence of PI as the staining agent. The degree of hippocampal neuronal death was monitored by fluorescence microscopic observation of the PI uptake. The intensities of the fluorescence were conveniently analyzed using Scion images. The intensity of the PI fluorescence reflects the relative number of the dead cells, since PI cannot permeate the live cell membranes.

SMILES	neuroprotective effect against Aβ-induced neurotoxicity (neuronal cell survival, PI uptake)
CC[C@H](CO)Nc1nc(NCc2ccccc2)c2ncn(C(C)C)c2n1 [Roscovitine, reference compound]	neuronal cell survival rates comparable to those of the control experiments
Clc1nc(NCc2ccccc2)c2ncn(Cc3cn(Cc4ccccc4)nn3)c2n1 [Compound 6, 2-Chloro-6-benzylamino-9-(1-benzyl-1H-1,2,3-triazol-4-yl-methyl)purine]	only marginal effects
CN1CC[C@H](c2c(O)cc(O)c3c(=O)cc(-c4ccccc4Cl)oc23)[C@H](O)C1 [Flavopiridol, reference compound]	neuronal cell survival rates comparable to those of the control experiments
Fc1c(F)c(F)c(Cn2cc(Cn3cnc4c(NCc5ccccc5)nc(Cl)nc43)nn2)c(F)c1F [Compound 9, 2-Chloro-6-benzylamino-9-[1-(pentafluorobenzyl)-1H-1,2,3-triazol-4-yl-methyl]purine]	virtually no neuroprotective effect
Fc1ccccc1Cn1cc(Cn2cnc3c(NCc4ccccc4)nc(Cl)nc32)nn1 [Compound 7, 2-Chloro-6-benzylamino-9-[1-(2-fluorobenzyl)-1H-1,2,3-triazol-4-yl-methyl]purine]	neuronal cell survival rates comparable to those of the control experiments; also recorded: effectively suppressed Aβ-induced neurotoxicity
Fc1cccc(F)c1Cn1cc(Cn2cnc3c(NCc4ccccc4)nc(Cl)nc32)nn1 [Compound 8, 2-Chloro-6-benzylamino-9-[1-(2,6-difluorobenzyl)-1H-1,2,3-triazol-4-yl-methyl]purine]	only marginal effects

From patent US8969556B2, “Purine-based triazoles” (Case Western Reserve University, priority 2010, dated 2015)
